Test system: HTB-54
Experiment: cells
Type: cell-based
Conditions: Homo sapiens, HTB-54; 48 h, average ± SEM; read-out: GI50 HTB54
Protocol: (§1) Cell lines were provided by the European Collection of Cell Cultures (ECACC) or by the American Type Culture Collection (ATCC). Seven cell lines were used: MCF-7 (breast adenocarnicoma), 184B5 (nonmalignant, mammary gland derived), CCRF-CEM (lymphoblastic leukemia), HT-29 (colon carcinoma), HTB-54 (lung carcinoma), BEAS-2B (nonmalignant, derived from the bronchial epithelium) and PC-3 (prostate carcinoma). MCF-7, CCRF-CEM, HT-29, HTB-54, BEAS-2B and PC-3 cell lines were grown in RPMI medium (Gibco) supplemented with 10% fetal bovine serum (FBS; Gibco), 100 units/mL penicillin and […] streptomycin (Gibco). 184B5 cells were grown in DMEM/F12 medium supplemented with 5% FBS, 1 × ITS (Lonza), 100 nM hydrocortisone (Aldich), 2 mM sodium pyruvate (Lonza), 20 ng/mL EGF (Sigma-Aldrich), 0.3 nM trans-retinoic acid (Sigma-Aldrich), 100 units/mL penicillin and […] streptomycin. Cells were maintained at 37 °C and 5% CO2.
(§2) The cytotoxic effect of each substance was tested by the MTT method. Each compound was initially dissolved in DMSO at a concentration of 0.01 M, and serial dilutions were prepared with nonsupplemented medium. The cytotoxic effect of each compound was tested at 50 and 10 µM as a first screening. […]
(§3) A total of 1 × 10^4 cells/well in 96-well plates were treated with increasing concentrations of the corresponding compounds for 48 h at 37 °C in a humidified atmosphere containing 5% CO2. Then, cells were incubated with 50 µL of MTT (2 mg/mL stock) for 4 h. The medium was then removed by aspiration, and the formazan crystals were dissolved in […] of DMSO. […] Data were obtained from at least 3 independent experiments performed in quadruplicate. The standard error of the means (SEM) for the cytotoxic parameters was calculated applying the standard deviation formula to the mean values of each parameter for the three independent experiments performed.
(§4) . Cisplatin was used as a standard drug. […]. […] The presence of electron-withdrawing groups (-NO2, -CF3, -Cl) in the phenyl ring favored the cytotoxic activity in the amides, but in the phosphoramidates, the best results were obtained for aliphatic chains methoxy (II.1b, II.2b) and ethoxy (II.1d, II.2d). […].
Compound COP(=O)(Nc1ccc([Se][Se]c2ccc(NP(=O)(OC)OC)cc2)cc1)OC [II.1b] has a GI50 of 7.2 ± 3.2 µM.
For N#C[Se]c1ccc(NC(=O)c2ccco2)cc1 [I.2h], the GI50 was > 100 µM.

Same assay, conditions: Homo sapiens, HTB-54; 48 h, average ± SEM; read-out: LC50 HTB54
COP(=O)(Nc1ccc([Se][Se]c2ccc(NP(=O)(OC)OC)cc2)cc1)OC [II.1b] gave a CC50 of 76 ± 4.2 µM.
With N#C[Se]c1ccc(NC(=O)c2ccco2)cc1 [I.2h] the CC50 was > 100 µM.

Same assay, conditions: Homo sapiens, HTB-54; 48 h, average ± SEM; read-out: TGI HTB54
In the case of COP(=O)(Nc1ccc([Se][Se]c2ccc(NP(=O)(OC)OC)cc2)cc1)OC [II.1b], the IC (TGI) is reported as 37.1 ± 3.2 µM.
With N#C[Se]c1ccc(NC(=O)c2ccco2)cc1 [I.2h] the IC (TGI) was > 100 µM.

Test system: PC-3
Experiment: cells
Type: cell-based
Conditions: Homo sapiens, PC-3; 48 h, average ± SEM; read-out: GI50 PC-3
Protocol: as §1, §2, §3, §4
For COP(=O)(Nc1ccc([Se][Se]c2ccc(NP(=O)(OC)OC)cc2)cc1)OC [II.1b], the GI50 was 17.1 ± 1.7 µM.
In the case of N#C[Se]c1ccc(NC(=O)c2ccco2)cc1 [I.2h], the GI50 is reported as > 100 µM.

Same assay, conditions: Homo sapiens, PC-3; 48 h, average ± SEM; read-out: LC50 PC-3
With COP(=O)(Nc1ccc([Se][Se]c2ccc(NP(=O)(OC)OC)cc2)cc1)OC [II.1b] the LC50 was 76.6 ± 2.5 µM.
For N#C[Se]c1ccc(NC(=O)c2ccco2)cc1 [I.2h], the LC50 was > 100 µM.

Same assay, conditions: Homo sapiens, PC-3; 48 h, average ± SEM; read-out: TGI PC-3
For COP(=O)(Nc1ccc([Se][Se]c2ccc(NP(=O)(OC)OC)cc2)cc1)OC [II.1b], the IC (TGI) was 46.9 ± 2.3 µM.
In the case of N#C[Se]c1ccc(NC(=O)c2ccco2)cc1 [I.2h], the IC (TGI) is reported as > 100 µM.

Test system: not listed separately
Experiment: MTT cytotoxicity in nonmalignant mammary gland derived cells
Type: cell-based
Conditions: human; nonmalignant cells, 48 h; read-out: LC50 184B5
Protocol: as §1, §2, §3, §4
(§5) The lack of selectivity toward cancerous cells is one of the major issues during the discovery and development of new anticancer agents. Therefore, we evaluated the cytotoxic activity of our compounds against two cell lines derived from nonmalignant breast tissue (184B5) and no malignant bronchial epithelium (BEAS-2B) (Table 2). […].
Work on COP(=O)(Nc1ccc([Se][Se]c2ccc(NP(=O)(OC)OC)cc2)cc1)OC [II.1b] yielded a CC50 of 8.65 µM.
In the case of N#C[Se]c1ccc(NC(=O)c2ccco2)cc1 [I.2h], the LC50 (50% lethal concentration) is reported as > 100 µM.

Test system: 184B5
Experiment: as above
Type: cell-based
Conditions: Homo sapiens, 184B5; nonmalignant cells, 48 h; read-out: GI50 184B5
Protocol: as §1, §2, §3, §4, §5
In the case of COP(=O)(Nc1ccc([Se][Se]c2ccc(NP(=O)(OC)OC)cc2)cc1)OC [II.1b], the GI50 is reported as 5.75 µM.
Work on N#C[Se]c1ccc(NC(=O)c2ccco2)cc1 [I.2h] yielded a GI50 of 36.1 µM.

Same assay, conditions: Homo sapiens, 184B5; nonmalignant cells, 48 h; read-out: TGI 184B5
With COP(=O)(Nc1ccc([Se][Se]c2ccc(NP(=O)(OC)OC)cc2)cc1)OC [II.1b] the IC (TGI) was 7.2 µM.
In the case of N#C[Se]c1ccc(NC(=O)c2ccco2)cc1 [I.2h], the IC (TGI) is reported as > 100 µM.

Same assay, conditions: breast
For COP(=O)(Nc1ccc([Se][Se]c2ccc(NP(=O)(OC)OC)cc2)cc1)OC [II.1b], the “Selectivity index (SI) = GI50 (184B5)/GI50 (MCF-7)” value was 1.36.
For N#C[Se]c1ccc(NC(=O)c2ccco2)cc1 [I.2h], the “Selectivity index (SI) = GI50 (184B5)/GI50 (MCF-7)” value was 5.66.

Test system: not listed separately
Experiment: MTT cytotoxicity in nonmalignant bronchial epithelium cells
Type: cell-based
Conditions: human; nonmalignant cells, 48 h; read-out: LC50 BEAS-2B
Protocol: as §1, §2, §3, §4, §5
For COP(=O)(Nc1ccc([Se][Se]c2ccc(NP(=O)(OC)OC)cc2)cc1)OC [II.1b], the LC50 (50% lethal concentration) was > 100 µM.
With N#C[Se]c1ccc(NC(=O)c2ccco2)cc1 [I.2h] the LC50 (50% lethal concentration) was > 100 µM.

Test system: BEAS-2B
Experiment: as above
Type: cell-based
Conditions: Homo sapiens, BEAS-2B; nonmalignant cells, 48 h; read-out: GI50 BEAS-2B
Protocol: as §1, §2, §3, §4, §5
For COP(=O)(Nc1ccc([Se][Se]c2ccc(NP(=O)(OC)OC)cc2)cc1)OC [II.1b], the GI50 was 6.48 µM.
In the case of N#C[Se]c1ccc(NC(=O)c2ccco2)cc1 [I.2h], the GI50 is reported as 8.47 µM.

Same assay, conditions: Homo sapiens, BEAS-2B; nonmalignant cells, 48 h; read-out: TGI BEAS-2B
With COP(=O)(Nc1ccc([Se][Se]c2ccc(NP(=O)(OC)OC)cc2)cc1)OC [II.1b] the IC (TGI) was 41.3 µM.
N#C[Se]c1ccc(NC(=O)c2ccco2)cc1 [I.2h] showed an IC (TGI) of 67.3 µM.

Same assay, conditions: lung
In the case of COP(=O)(Nc1ccc([Se][Se]c2ccc(NP(=O)(OC)OC)cc2)cc1)OC [II.1b], the “Selectivity index (SI) = GI50 (BEAS-2B)/GI50 (HTB-54)” value is reported as 0.84.

Test system: MCF-7
Experiment: cells
Conditions: Homo sapiens, MCF7, 48 h, read-out: Cell growth (%) MCF-7
COP(=O)(Nc1ccc([Se][Se]c2ccc(NP(=O)(OC)OC)cc2)cc1)OC [II.1b] showed an activity at 10 µM of -13.9%.
With N#C[Se]c1ccc(NC(=O)c2ccco2)cc1 [I.2h] the activity at 10 µM was 41.6%.

Same assay, conditions: Homo sapiens, MCF7, 48 h, read-out: GI50 MCF-7, 48 h, average ± SEM
Compound COP(=O)(Nc1ccc([Se][Se]c2ccc(NP(=O)(OC)OC)cc2)cc1)OC [II.1b] has a GI50 of 4.3 ± 0.6 µM.
In the case of N#C[Se]c1ccc(NC(=O)c2ccco2)cc1 [I.2h], the GI50 is reported as 7.4 ± 1.9 µM.

Same assay, conditions: Homo sapiens, MCF7, 48 h, read-out: LC50 MCF-7
COP(=O)(Nc1ccc([Se][Se]c2ccc(NP(=O)(OC)OC)cc2)cc1)OC [II.1b] gave a CC50 of 56.9 ± 5.4 µM.
With N#C[Se]c1ccc(NC(=O)c2ccco2)cc1 [I.2h] the CC50 was 94.9 ± 4.7 µM.

Same assay, conditions: Homo sapiens, MCF7, 48 h, read-out: TGI MCF-7
Work on COP(=O)(Nc1ccc([Se][Se]c2ccc(NP(=O)(OC)OC)cc2)cc1)OC [II.1b] yielded an IC (TGI) of 8.8 ± 0.1 µM.
In the case of N#C[Se]c1ccc(NC(=O)c2ccco2)cc1 [I.2h], the IC (TGI) is reported as 50.4 ± 1.3 µM.

Test system: CCRF-CEM
Experiment: cells
Conditions: Homo sapiens, 48 h, read-out: Cell growth (%) CCRF-CEM
Compound COP(=O)(Nc1ccc([Se][Se]c2ccc(NP(=O)(OC)OC)cc2)cc1)OC [II.1b] has an activity at 10 µM of -74.1%.
Work on N#C[Se]c1ccc(NC(=O)c2ccco2)cc1 [I.2h] yielded an activity at 10 µM of 47.1%.

Same assay, conditions: Homo sapiens, 48 h, read-out: GI50 CCRF-CEM
Work on COP(=O)(Nc1ccc([Se][Se]c2ccc(NP(=O)(OC)OC)cc2)cc1)OC [II.1b] yielded a GI50 of 2 ± 0.1 µM.
For N#C[Se]c1ccc(NC(=O)c2ccco2)cc1 [I.2h], the GI50 was 21.8 ± 3.1 µM.

Same assay, conditions: Homo sapiens, 48 h, read-out: LC50 CCRF-CEM
Work on COP(=O)(Nc1ccc([Se][Se]c2ccc(NP(=O)(OC)OC)cc2)cc1)OC [II.1b] yielded a CC50 of 8 ± 2.8 µM.
In the case of N#C[Se]c1ccc(NC(=O)c2ccco2)cc1 [I.2h], the CC50 is reported as > 100 µM.

Same assay, conditions: Homo sapiens, 48 h, read-out: TGI CCRF-CEM
COP(=O)(Nc1ccc([Se][Se]c2ccc(NP(=O)(OC)OC)cc2)cc1)OC [II.1b] gave an IC (TGI) of 3.9 ± 0.4 µM.
In the case of N#C[Se]c1ccc(NC(=O)c2ccco2)cc1 [I.2h], the IC (TGI) is reported as > 100 µM.

Test system: HT-29
Experiment: cells
Conditions: Homo sapiens, HT-29, 48 h, read-out: Cell growth (%) HT-29
Compound COP(=O)(Nc1ccc([Se][Se]c2ccc(NP(=O)(OC)OC)cc2)cc1)OC [II.1b] has an activity at 10 µM of 70.7%.
N#C[Se]c1ccc(NC(=O)c2ccco2)cc1 [I.2h] showed an activity at 10 µM of 46.7%.

Same assay, conditions: Homo sapiens, HT-29, 48 h, read-out: GI50 HT-29
For COP(=O)(Nc1ccc([Se][Se]c2ccc(NP(=O)(OC)OC)cc2)cc1)OC [II.1b], the GI50 was 20 ± 3.1 µM.
For N#C[Se]c1ccc(NC(=O)c2ccco2)cc1 [I.2h], the GI50 was 42.7 ± 1.2 µM.

Same assay, conditions: Homo sapiens, HT-29, 48 h, read-out: LC50 HT-29
COP(=O)(Nc1ccc([Se][Se]c2ccc(NP(=O)(OC)OC)cc2)cc1)OC [II.1b] showed a CC50 of 74.9 ± 0.6 µM.
In the case of N#C[Se]c1ccc(NC(=O)c2ccco2)cc1 [I.2h], the CC50 is reported as > 100 µM.

Same assay, conditions: Homo sapiens, HT-29, 48 h, read-out: TGI HT-29
Work on COP(=O)(Nc1ccc([Se][Se]c2ccc(NP(=O)(OC)OC)cc2)cc1)OC [II.1b] yielded an IC (TGI) of 47.4 ± 2 µM.
In the case of N#C[Se]c1ccc(NC(=O)c2ccco2)cc1 [I.2h], the IC (TGI) is reported as > 100 µM.
